The values below come from patent publication US10071989B2, “Substituted cinnamamide derivative, preparation method and use thereof” (TASLY PHARMACEUTICAL GROUP CO., LTD., priority 2011, dated 2018).

“Also recorded” adds a separate entry of the source. Structures can show the parent of a compound that is named as a salt. Where two headings read alike, the source gives them in different places. Marks after values point to notes of the source that are not given here.

Common to all, as to assay type: in vivo
The subject of experiment [1] is C57BL/6 mice. As to the kind of experiment: Number of autonomic activity of mice (YLS-1A autonomic activity recorder). The note with it: for Effect on autonomic activity of mice (in words): 10 mg/kg intragastric, one week, compared with the solvent control group; for Number of Autonomic activity (time): 10 mg/kg intragastric once daily, counted 30 min after administration at 6th day. On the procedure:
110 mice were randomly selected to observe the number of their autonomic activity. The mice was placed into the YLS-1A multi-functional mice autonomic activity recorder, and after 1 min of adaption, the mice's activity was counted within a time period from the end of 1st min to 4th min. 96 mice with the number of autonomic activity between 70˜140 were screened out, divided randomly into 8 groups, and intragastrically administrated with the drug compounds at a dose listed in Table 1, one time daily for 7 days consecutively. The solvent control group was administrated with 2% Tween-80 aqueous solution in the same volume. All mice were placed into the autonomic activity recorder 30 min after administration at 6th day. After 1 min of adaption, the mice's activity was counted within a time period from the end of 1st min to 4th min.
(§1) 130 mice were randomly selected to observe the number of their autonomic activity. The method was the same with that of Experiment 1. 108 mice with the number of autonomic activity between 70˜140 were screened out, divided randomly into 9 groups, and intragastrically administrated with the drug compounds at a dose listed in Table 2, one time daily for 7 days consecutively. The solvent control group was administrated with 2% Tween-80 aqueous solution in the same volume. 30 min after administration at 6th day, the number of the autonomic activity of each mouse was observed. 30 min after administration at 7th day, the immobility time in tail suspension test was observed. The method was the same with that in Experiment 1.

For experiment [2], the system named is C57BL/6 mice. In words: "Acquired despair" depression model of tail suspension test in mice. The note with it: 10 mg/kg intragastric for 7 days; compared with the solvent control group. Here is the method: 30 min after administration at 7th day, the mice was fixed on a sustainer with a rubberized cloth at 1 cm close to the end of the tail of mice, making the mice hanged upside down. The head of the mice was about 30 cm above the table and its sight was separated from the neighboring mouse with a plate. Usually, the mice might manage to struggle in hopes of overcoming the abnormal body position. […] The accumulated immobility time within 6 min of each mouse was observed, which was regarded as “despair time”.
as §1

Experiment [3] concerns C57BL/6 mice. In words: Depression model test of anti-blepharoptosis caused by reserpine (akinesia, blepharoptosis, shell temperature). The note with it: for Blepharoptosis, “out-of-circle” ratio and shell temperature after reserpine (effect in words) / Change in the shell temperature (T ° C.) / Degree of eye-closure / responders at 10 mg/kg / Change in the shell temperature (ΔT ° C.): 10 mg/kg intragastric 7 days; for Blepharoptosis, “out-of-circle” ratio and shell temperature after reserpine (effect in words): compared with the solvent control group; for Degree of eye closure / blepharoptosis after reserpine compared with I-1 (in words) / “out-of-circle” ratio after reserpine compared with I-1 (in words): 10 mg/kg; for Change in the shell temperature (T ° C.) / Degree of eye-closure / responders at 10 mg/kg / Change in the shell temperature (ΔT ° C.): reserpine 4 mg/kg i.p.; for Change in the shell temperature (T ° C.) / Change in the shell temperature (ΔT ° C.): abdomen, two hours after reserpine; for Change in the shell temperature (T ° C.) / Degree of eye-closure / Change in the shell temperature (ΔT ° C.): ±SD; for Degree of eye-closure: score 0-4 one hour after reserpine; for responders at 10 mg/kg: Mus musculus, po, 1 h, one hour after reserpine, 7.5 cm circle, 15-second observation, read-out: “out-of-circle” ratio; for “out-of-circle” ratio after reserpine compared with I-1 (in words): compared with I-1, p<0.05. On the procedure:
120 male C57BL/6 mice were randomly selected to observe the number of their autonomic activity. The mice was placed into the YLS-1A multi-functional mice autonomic activity recorder, and after 1 min of adaption, the activity of the mice was counted within a time period from the end of 1st min to 4th min. 96 mice with the number of autonomic activity between 70˜140 were screened out, divided randomly into 8 groups, and intragastrically administrated with the drug compounds at a dose listed in Table 3, one time daily for 7 days consecutively. The solvent control group was administrated with 2% Tween-80 aqueous solution in the same volume. Except the normal control group, 30 min after the last administration, each group was injected intraperitoneally with reserpine at a dose of 4 mg/kg. Next, akinesia, blepharoptosis and shell temperature were observed.
I Akinesia: one hour after intraperitoneal injection of reserpine, the mice were placed at the center of a circle with a diameter of 7.5 cm for a 15-second observation to calculate the “out-of-circle” ratio.
II Blepharoptosis: one hour after intraperitoneal injection of reserpine, the eye closure of mice was observed and scored by the following standard: eyelids open, 0; eyelids ¼ closed, 1; eyelids 2/4 closed, 2; eyelids ¾ closed, 3; eyelids closed completely, 4.
III Shell temperature: two hours after intraperitoneal injection of reserpine, the shell temperature of the abdomen of the mice was measured.
120 C57BL/6 mice were randomly selected to observe the number of their autonomic activity. The method was the same with that of Experiment 1. 100 mice with the number of autonomic activity between 70˜140 were screened out, divided randomly into 10 groups, and intragastrically administrated with the drug compounds at a dose listed in Table 4, one time daily for 7 days consecutively. The mice in the normal group and the solvent control group were administrated with 2% Tween-80 aqueous solution in the same volume. Except the normal control group, 30 min after the last administration, each group was injected intraperitoneally with reserpine at a dose of 4 mg/kg. Next, akinesia, blepharoptosis and shell temperature were observed. Observation method was the same with that of Experiment 1.

The next experiment deals with mice. As to the kind of experiment: Anti-depression effect in the tested models (overall conclusion). The note with it: in the tested model at the tested dose. From the text:
Based on the aforesaid experiments, the following conclusion can be drawn: • 1.

The subject of experiment [4] is C57BL/6 mice. In words: Forced swimming experiment in mice. The note with it: 10 mg/kg intragastric once daily for 7 days; 30 min after last administration; end of 2nd min to 6th min. Here is the method: After 1˜2 days of adaptive feed, 80 male C57BL/6 mice, aged 6˜8 weeks and weighing 18˜22 g, were placed into the YLS-1A multi-functional mice autonomic activity recorder. After 1 min of adaption, the activity of the mice was counted within a time period from the end of 1st min to 4th min. 60 mice with the number of autonomic activity between 70˜140 were screened out, divided randomly into 6 groups, and intragastrically administrated with the drug compounds at a dose listed in Table 5, one time daily for 7 days consecutively. The solvent control group was administrated with 2% Tween-80 aqueous solution in the same volume. After the administration at 6th day, the mice were placed into a cylindrical aquarium with a water depth of 10 cm and 25° C. to force the mice to swim. After 15 min, the mice were taken out, dried and returned to the cage. 24 hours later, 30 min after the last intragastrical administration, the mice were placed into a glass bottle with a diameter of 10 cm, a height of 30 cm and a water depth of 10 cm, and the temperature of the water in the bottle was at 25° C. The mice were separated with an opaque partition, so as not to influence each other. After 2 min of adaption, an accumulated immobility time from the end of 2nd min to 6th min was recorded.

Setting [5] is: Experiment 1, end of 1st min to 4th min.

Turning to `CCN(CC)C(=O)/C=C/c1cc2c(c(C(F)(F)F)c1)OCO2` [Compound I-9, N,N-diethyl-5′-trifluoromethyl-3′,4′-methylenedioxy cinnamamide], the “Effect on autonomic activity of mice (in words)” value in the experiment on C57BL/6 mice [1] is recorded as “had no effect”. Also, the “Number of Autonomic activity (time)” value with C57BL/6 mice [1] (Experiment 2) was 83.60 ± 22.68 time. In addition, in the experiment with C57BL/6 mice [2], the “Effect on immobility time in tail suspension test (in words)” value is listed as “reduce the immobility time of the mice in tail suspension test significantly; also recorded: significantly shorten the immobility time”. In the experiment on C57BL/6 mice [3], the “Blepharoptosis, “out-of-circle” ratio and shell temperature after reserpine (effect in words)” value was “remarkably improve; also recorded: antagonizing the decrease of shell temperature, akinesia and improving the degree of eye closure”; the “Degree of eye closure / blepharoptosis after reserpine compared with I-1 (in words)” value was “increased improvement”. In the experiment with C57BL/6 mice [3] (Experiment 2), the “Change in the shell temperature (T ° C.)” value was 28.70 ± 1.78 °C, the Degree of eye-closure amounted to 1.80 ± 1.23 and the responders at 10 mg/kg is 30%. The “Anti-depression effect compared with the pharmacologic effect of I-1 (in words)” value in the experiment with mice was “increased to some degree”.

For the molecule `CN(C)C(=O)/C=C/c1cc2c(c(C(F)(F)F)c1)OCO2` [Compound I-8, N,N-dimethyl-5′-trifluoromethyl-3′,4′-methylenedioxy cinnamamide], the “Number of Autonomic activity (time)” value in the experiment with C57BL/6 mice [1] (Experiment 2) worked out at 84.00 ± 21.81 time. Further, in the experiment on C57BL/6 mice [3], the “Blepharoptosis, “out-of-circle” ratio and shell temperature after reserpine (effect in words)” value was “remarkably improve; also recorded: antagonizing the decrease of shell temperature, akinesia and improving the degree of eye closure”. In the experiment with C57BL/6 mice [3] (Experiment 2), the “Change in the shell temperature (T ° C.)” value was determined as 27.60 ± 0.88 °C, the Degree of eye-closure is 2.30 ± 1.64 and the responders at 10 mg/kg amounted to 40%.

As to `COc1cc(/C=C/C=C/C(=O)NCC(C)C)cc2c1OCO2` [Compound I-6, N-isobutyl-5-(5′-methoxy-3′,4′-methylenedioxyphenyl)pentadienamide], the “Number of Autonomic activity (time)” value in the experiment with C57BL/6 mice [1] (setting [5]) is recorded as 98.83 ± 17.56 time. In the experiment on C57BL/6 mice [3], the “Blepharoptosis, “out-of-circle” ratio and shell temperature after reserpine (effect in words)” value is listed as “improved significantly”; the ““out-of-circle” ratio after reserpine compared with I-1 (in words)” value (from here on ““out-of-circle” ratio after reserpine”) is listed as “increased markedly”. Also, in the experiment on C57BL/6 mice [3] (Experiment 1), the “Change in the shell temperature (ΔT ° C.)” value (“Change … (ΔT ° C.)” below) was found to be 1.84 ± 0.22 °C, the Degree of eye-closure is listed as 2.08 ± 1.68 and the responders at 10 mg/kg was determined as 67%.

Turning to `CC(C)CNC(=O)/C=C/c1cc2c(c([N+](=O)[O-])c1)OCO2` [Compound I-2, N-isobutyl-5′-nitro-3′,4′-methylenedioxy cinnamamide], the “Number of Autonomic activity (time)” value in the experiment with C57BL/6 mice [1] (setting [5]) was found to be 102.00 ± 26.24 time. Further, in the experiment on C57BL/6 mice [3], the “Blepharoptosis, “out-of-circle” ratio and shell temperature after reserpine (effect in words)” value is reported as “improved significantly”; the ““out-of-circle” ratio after reserpine” value was “increased markedly”. Moreover, in the experiment with C57BL/6 mice [3] (Experiment 1), the “Change … (ΔT ° C.)” value came to 1.60 ± 0.18 °C, the Degree of eye-closure stood at 1.67 ± 1.30 and the responders at 10 mg/kg was found to be 83%.

Take `CNCCC(Oc1ccc(C(F)(F)F)cc1)c1ccccc1` (stereo not drawn) [fluoxetine hydrochloride, Fluoxetine hydrochloride, reference compound]: the “Effect on autonomic activity of mice (in words)” value in the experiment on C57BL/6 mice [1] is reported as “had no effect”. In addition, the “Number of Autonomic activity (time)” value in the experiment with C57BL/6 mice [1] (setting [5]) turned out to be 121.75 ± 24.14 time. Besides, in the experiment on C57BL/6 mice [1] (Experiment 2), the “Number of Autonomic activity (time)” value is 102.0 ± 14.91 time. Further, in the experiment with C57BL/6 mice [2], the “Effect on immobility time in tail suspension test (in words)” value is on record as “reduce the immobility time in tail suspension test significantly”. Moreover, in the experiment with C57BL/6 mice [3] (hydrochloride), the “Blepharoptosis, “out-of-circle” ratio and shell temperature after reserpine (effect in words)” value was “obviously increase mice “out-of-circle” ratio and shell temperature, and significantly reduce the degree of eye closure of the mice; also recorded: improve the “out-of-circle” ratio obviously, and significantly reduce the degree of eye closure and raise the shell temperature”. For the same molecule, in the experiment with C57BL/6 mice [3] (Experiment 1), the “Change … (ΔT ° C.)” value was 1.89 ± 0.21 °C, the Degree of eye-closure was 1.42 ± 1.38**Δ and the responders at 10 mg/kg worked out at 58%. For the same molecule, in the experiment on C57BL/6 mice [3] (Experiment 2), the “Change in the shell temperature (T ° C.)” value is 29.20 ± 0.54 °C, the Degree of eye-closure was determined as 2.00 ± 1.33 and the responders at 10 mg/kg was 50%. Moreover, the “Immobility time in the forced swimming test in mice(s)” value with C57BL/6 mice [4] is 98.96 ± 32.43 s.

Consider `CC(C)CNC(=O)/C=C/c1cc(I)c2c(c1)OCO2` [Compound I-3, N-isobutyl-5′-iodo-3′,4′-methylenedioxy cinnamamide], for which, in the experiment with C57BL/6 mice [1] (setting [5]), the “Number of Autonomic activity (time)” value is listed as 94.42 ± 23.97 time. For the same molecule, in the experiment with C57BL/6 mice [3], the “Blepharoptosis, “out-of-circle” ratio and shell temperature after reserpine (effect in words)” value is given as “improved significantly”; the “Degree of eye closure / blepharoptosis after reserpine compared with I-1 (in words)” value is “reduced”; the ““out-of-circle” ratio after reserpine” value is reported as “increased markedly”. Moreover, in the experiment with C57BL/6 mice [3] (Experiment 1), the “Change … (ΔT ° C.)” value is 1.72 ± 0.26 °C, the Degree of eye-closure is reported as 1.00 ± 1.13**^ΔΔ and the responders at 10 mg/kg amounted to 92%.
